The source of these data is DBAASP.

Values after ≈ are worked out from the molar mass of the structure shown.

Common to all, as to test: ≥ marks a high value that may be exact or a test limit, other limits are often not marked, values filed in µg/mL are converted to µM
For test [1], the system named is Pseudomonas aeruginosa CICC 21630.
Test [2] deals with Escherichia coli ATCC 25922.
The subject of test [3] is Pseudomonas aeruginosa 21328.
The test system of test [4] is Pseudomonas aeruginosa CICC 10419.
The subject of test [5] is Pseudomonas aeruginosa CICC 21625.
Test [6] relates to Pseudomonas aeruginosa ATCC 27853.
The subject of test [7] is Staphylococcus aureus ATCC 29213.
Test [8] relates to Pseudomonas aeruginosa CICC 11411.
For test [9], the system named is Pseudomonas aeruginosa CICC 11421.
The subject of test [10] is Pseudomonas aeruginosa CICC 11431.
Test [11] deals with Pseudomonas aeruginosa 25349.
For test [12], the system named is Proteus mirabilis CCUG 26767.
Test [13] concerns Salmonella enterica subsp. enterica serovar Typhimurium LT2.
For test [14], the system named is Enterococcus faecium ATCC 19434.
Test [15] concerns Klebsiella pneumoniae ATCC 13883.
The test system of test [16] is Enterococcus faecalis ATCC 19433.
Test [17] has as its system Bacillus subtilis ATCC 6633.
A further test concerns Escherichia coli K-12.
Test [18] relates to Staphylococcus aureus ATCC 6538.
For test [19], the system named is Micrococcus luteus NCIMB 13267.
Test [20] concerns Candida albicans ATCC 90028.
For the next test, the system named is Candida krusei NCPF 3876.
Test [21] concerns Klebsiella pneumoniae NCTC 13368.
Test [22] deals with Staphylococcus aureus ATCC 9144.
Test [23] concerns Pseudomonas aeruginosa PAO1.
For test [24], the system named is Escherichia coli NCTC 12923.
Test [25] deals with Staphylococcus aureus USA 300.
In test [26] the test system is Acinetobacter baumannii ATCC 17978.
The subject of test [27] is Pseudomonas aeruginosa PA214.
The subject of test [28] is Enterococcus faecium ATCC 700221.
For test [29], the system named is Staphylococcus aureus ATCC 33591.
The subject of test [30] is Acinetobacter baumannii CR17.
Test [31] relates to Acinetobacter baumannii ATCC 19606.
Test [32] has as its system Acinetobacter baumannii ATCC BAA-1605.
In test [33] the test system is Klebsiella pneumoniae ATCC 700603.
Test [34] deals with Klebsiella pneumoniae KpC+001825971.
Test [35] concerns Escherichia coli KpC+001812446.

The term MIC denotes the least concentration at which growth counts as inhibited. Low readings indicate inhibition by little substance, high ones a need for much substance. As to `C[C@H](N)C(=O)N[C@@H](CCCN=C(N)N)C(=O)N[C@@H](CCCN=C(N)N)C(=O)N[C@@H](C)C(=O)N[C@@H](CCCN=C(N)N)C(=O)N[C@@H](CCCN=C(N)N)C(=O)N[C@@H](CCCN=C(N)N)C(=O)N[C@@H](Cc1c[nH]c2ccccc12)C(=O)N[C@@H](CCCN=C(N)N)C(=O)N[C@@H](CCCN=C(N)N)C(=O)N[C@@H](CCCN=C(N)N)C(=O)N[C@@H](C)C(=O)N[C@@H](CCCN=C(N)N)C(=O)N[C@@H](CCCN=C(N)N)C(=O)N[C@@H](C)C(N)=O` [ARRARRRWRRRARRA], the MIC in test [1] is not below 125 µM; in test [2], 31.2 µM (≈ 64 µg/mL); in [3], not below 125 µM; in [4], not below 125 µM; in test [5], not below 125 µM; in test [6] it was 62.4 µM (≈ 128 µg/mL). Also, the MIC in test [7] was 31.2 µM (≈ 64 µg/mL); in test [8] it was not below 125 µM; in [9], not below 125 µM; in [10] it was not below 125 µM; in test [11], 15.6 µM (≈ 32 µg/mL).
In the case of `CC[C@H](C)[C@H](NC(=O)[C@H](CC(C)C)NC(=O)[C@@H]1CCCN1C(=O)[C@H](CC(C)C)NC(=O)[C@@H](N)Cc1ccccc1)C(=O)N[C@@H](CC(C)C)C(=O)N[C@@H](Cc1ccccc1)C(=O)N[C@@H](Cc1c[nH]c2ccccc12)C(=O)N[C@H](C(=O)N[C@H](C(=O)N[C@H](C(=O)N[C@@H](C)C(=O)N[C@@H](CC(C)C)C(N)=O)[C@@H](C)O)C(C)C)[C@@H](C)CC` [FLPLILFWIVTAL], the MIC in [12] is not below 388 µM; in test [2] it was more than 388 µM; in test [13] it was not below 388 µM; in [14] it was not below 388 µM; in test [15] it was not below 388 µM; in [6], more than 388 µM. For the same compound, the MIC was more than 388 µM in [7], not below 388 µM in test [16] and not below 388 µM in [17].
On to `CC(C)C[C@H](NC(=O)[C@H](CO)NC(=O)[C@H](CCC(=O)O)NC(=O)[C@H](CC(C)C)NC(=O)[C@H](CCC(N)=O)NC(=O)[C@H](CCC(N)=O)NC(=O)[C@H](CCC(=O)O)NC(=O)[C@H](CC(C)C)NC(=O)[C@H](CCC(N)=O)NC(=O)[C@H](CO)NC(=O)[C@H](CC(C)C)NC(=O)[C@H](CCC(=O)O)NC(=O)[C@H](CCC(N)=O)NC(=O)[C@H](CCC(=O)O)NC(=O)[C@H](CC(C)C)NC(=O)[C@H](CO)NC(=O)[C@H](CCC(N)=O)NC(=O)[C@H](C)NC(=O)[C@H](CCC(=O)O)NC(=O)[C@H](CCC(N)=O)NC(=O)[C@H](CCC(=O)O)NC(=O)[C@H](Cc1ccccc1)NC(=O)[C@H](CCC(N)=O)NC(=O)[C@H](C)NC(=O)[C@H](Cc1ccccc1)NC(=O)[C@H](CCC(=O)O)NC(=O)CN)C(=O)O` [GEFAQFEQEAQSLEQELSQLEQQLESL], for which the MIC with Escherichia coli K-12 was not below 200 µM; in test [18], more than 200 µM; in [19] it was not below 200 µM; in [6], more than 200 µM; in [17], not below 200 µM.
For `CC[C@H](C)[C@H](N)C(=O)N[C@@H](CCCN=C(N)N)C(=O)NCC(=O)N[C@@H](Cc1ccc(O)cc1)C(=O)N[C@@H](CCCCN)C(=O)NCC(=O)NCC(=O)N[C@@H](Cc1ccc(O)cc1)C(=O)N[C@@H](CS)C(=O)N[C@@H](CCCCN)C(N)=O` [IRGYKGGYCK], the MIC in test [20] was 15.4 µM (≈ 17.6 µg/mL); in the test with Candida krusei NCPF 3876, not below 112 µM; in [21], not below 112 µM; in test [22], not below 112 µM; in test [23] it was more than 112 µM; in [24] it was not below 112 µM. The MIC in [25] and in [26] was not below 112 µM in each case.
With `CC(C)C[C@H](NC(=O)[C@H](Cc1ccccc1)NC(=O)[C@H](C)NC(=O)[C@H](C)NC(=O)[C@H](CCCCN)NC(=O)[C@H](CCCCN)NC(=O)[C@H](CCCCN)NC(=O)[C@@H](N)CCCCN)C(=O)N[C@@H](CCCCN)C(=O)N[C@@H](CC(C)C)C(=O)N[C@@H](Cc1c[nH]c2ccccc12)C(=O)N[C@@H](CC(C)C)C(=O)N[C@@H](CCCCN)C(=O)N[C@@H](CC(C)C)C(=O)N[C@@H](Cc1ccccc1)C(=O)N[C@@H](C)C(=O)N[C@@H](C)C(N)=O` [KKKKAAFLKLWLKLFAA], the MIC was 12.5 µM (≈ 25 µg/mL) in the test on Escherichia coli K-12, more than 50 µM in [23] and not below 50 µM in [27].
On to `CC[C@H](C)[C@H](NC(=O)[C@H](CCCCN)NC(=O)[C@H](CCCN=C(N)N)NC(=O)[C@H](Cc1ccccc1)NC(=O)[C@H](CC(C)C)NC(=O)[C@H](CCCN=C(N)N)NC(=O)[C@@H](N)CCCCN)C(=O)N[C@@H](CC(C)C)C(=O)N[C@@H](CCCCN)C(=O)N[C@@H](Cc1ccc(O)cc1)C(=O)N[C@@H](CC(C)C)C(N)=O` [KRLFRKILKYL], for which the MIC amounted to 5.75 µM (≈ 8.49 µg/mL) in test [28]; 11.5 µM (≈ 17 µg/mL) in [2]; 5.75 µM (≈ 8.49 µg/mL) in test [29]; 16.1 µM (≈ 23.8 µg/mL) in test [30]; 3.04 µM (≈ 4.5 µg/mL) in [31]; 11.5 µM (≈ 17 µg/mL) in test [6]. The values for the MIC in [32] and in [33] were 3.04 µM (≈ 4.5 µg/mL) and 5.75 µM (≈ 8.49 µg/mL), respectively.
In the case of `CC[C@H](C)[C@H](NC(=O)[C@H](CCCCN)NC(=O)[C@H](CCCCN)NC(=O)[C@H](Cc1ccccc1)NC(=O)[C@H](CC(C)C)NC(=O)[C@H](CCCCN)NC(=O)[C@H](Cc1c[nH]c2ccccc12)NC(=O)[C@H](CCCCN)NC(=O)[C@H](Cc1cnc[nH]1)NC(=O)[C@@H](NC(=O)[C@@H](N)C(C)C)[C@@H](C)CC)C(=O)NCC(=O)N[C@@H](C)C(=O)N[C@H](C(=O)N[C@@H](CC(C)C)C(=O)N[C@@H](CCCCN)C(=O)N[C@H](C(=O)N[C@@H](CC(C)C)C(=O)O)C(C)C)C(C)C` [VIHKWKLFKKIGAVLKVL], the MIC in [34] amounted to 8 µM (≈ 17 µg/mL); in [2], 4 µM (≈ 8.48 µg/mL); in test [35], 4 µM (≈ 8.48 µg/mL); in test [15], 30 µM (≈ 63.6 µg/mL).
